Test results published in patent US11845752B2, “Substituted imidazo[1,5-a]pyrazines for the treatment of hepatitis B” (ALIGOS THERAPEUTICS, INC., priority 2020, dated 2023).

Each molecule was assayed on HBV (assay: HBV-DNA antiviral assay using HepG2.117 cells (intracellular HBV DNA by qPCR)). Settings: Hepatitis B virus, HepG2.117, 72 h, HBV DNA inhibition, 3 days incubation, read-out: EC50.
Assay type: cell-based, HBV genotype D
Procedure, shortened: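 Read-outs: cell-lysate HBV DNA copies by qPCR (interpolated from gBlock standard) and parallel cellular ATP luminescence for CC50, both normalised to 2% DMSO controls and fitted by non-linear regression. HepG2.117 Tet-off genotype D HBV cells, induced by doxycycline removal, exposed 3 days to 4-fold serial dilutions.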

First: C[C@@H]1Cn2c(c(C(=O)NCc3ccccc3-c3ccncn3)n(-c3ccc(OC[C@@](C)(O)C(F)(F)F)cc3)c2=O)CN1C(=O)c1ccc(Br)c(C(F)(F)F)c1 (stereo in doubt) [Compound 82a, rac-(6R)-7-[4-bromo-3-(trifluoromethyl)benzoyl]-6-methyl-3-oxo-N-[(2-pyrimidin-4-ylphenyl)methyl]-2-[4-[rac-(2R)-3,3,3-trifluoro-2-hydroxy-2-methyl-propoxy]phenyl]-6,8-dihydro-5H-imidazo[1,5-a]pyrazine-1-carboxamide]
Second: C[C@H]1Cn2c(c(C(=O)NCc3ccccc3-c3ccncn3)n(-c3ccc(OC[C@@](C)(O)C(F)(F)F)cc3)c2=O)CN1C(=O)c1ccc(Br)c(C(F)(F)F)c1 (stereo in doubt) [Compound 82b, rac-(6S)-7-[4-bromo-3-(trifluoromethyl)benzoyl]-6-methyl-3-oxo-N-[(2-pyrimidin-4-ylphenyl)methyl]-2-[4-[rac-(2R)-3,3,3-trifluoro-2-hydroxy-2-methyl-propoxy]phenyl]-6,8-dihydro-SH-imidazo[1,5-a]pyrazine-1-carboxamide]
The EC50 of the first is higher: 50 to 500 nM for the first, less than 50 nM for the second. The second is the more potent here.

`C[C@@H]1Cn2c(c(C(=O)NCc3ccccc3-c3ccncn3)n(-c3ccc(OC[C@](C)(O)C(F)(F)F)cc3)c2=O)CN1C(=O)c1ccc(Br)c(C(F)(F)F)c1` (stereo in doubt) [Compound 83a, rac-(6R)-7-[4-bromo-3-(trifluoromethyl)benzoyl]-6-methyl-3-oxo-N-[(2-pyrimidin-4-ylphenyl)methyl]-2-[4-[rac-(2S)-3,3,3-trifluoro-2-hydroxy-2-methyl-propoxy]phenyl]-6,8-dihydro-SH-imidazo[1,5-a]pyrazine-1-carboxamide] and `C[C@H]1Cn2c(c(C(=O)NCc3ccccc3-c3ccncn3)n(-c3ccc(OC[C@](C)(O)C(F)(F)F)cc3)c2=O)CN1C(=O)c1ccc(Br)c(C(F)(F)F)c1` (stereo in doubt) [Compound 83b, rac-(6S)-7-[4-bromo-3-(trifluoromethyl)benzoyl]-6-methyl-3-oxo-N-[(2-pyrimidin-4-ylphenyl)methyl]-2-[4-[rac-(2S)-3,3,3-trifluoro-2-hydroxy-2-methyl-propoxy]phenyl]-6,8-dihydro-5H-imidazo[1,5-a]pyrazine-1-carboxamide] fall in the same range of EC50: 50 to 500 nM for the first, 50 to 500 nM for the second.

`C[C@@H]1Cn2c(c(C(=O)NCc3ccccc3-c3ccccn3)n(-c3ccc(OC[C@@](C)(O)C(F)(F)F)cc3)c2=O)CN1C(=O)c1ccc(Br)c(C(F)(F)F)c1` (stereo in doubt) [Compound 89a, rac-(6R)-7-[4-bromo-3-(trifluoromethyl)benzoyl]-6-methyl-3-oxo-N-[[2-(2-pyridyl)phenyl]methyl]-2-[4-[rac-(2R)-3,3,3-trifluoro-2-hydroxy-2-methyl-propoxy]phenyl]-6,8-dihydro-5H-imidazo[1,5-a]pyrazine-1-carboxamide] and `C[C@H]1Cn2c(c(C(=O)NCc3ccccc3-c3ccccn3)n(-c3ccc(OC[C@@](C)(O)C(F)(F)F)cc3)c2=O)CN1C(=O)c1ccc(Br)c(C(F)(F)F)c1` (stereo in doubt) [Compound 89b, rac-(6S)-7-[4-bromo-3-(trifluoromethyl)benzoyl]-6-methyl-3-oxo-N-[[2-(2-pyridyl)phenyl]methyl]-2-[4-[rac-(2R)-3,3,3-trifluoro-2-hydroxy-2-methyl-propoxy]phenyl]-6,8-dihydro-SH-imidazo[1,5-a]pyrazine-1-carboxamide] cannot be ordered by EC50: less than 50 nM for the first, less than 50 nM for the second.

For `C[C@@H]1Cn2c(c(C(=O)NCc3ccccc3-c3ccccn3)n(-c3ccc(OC[C@](C)(O)C(F)(F)F)cc3)c2=O)CN1C(=O)c1ccc(Br)c(C(F)(F)F)c1` (stereo in doubt) [Compound 90a, rac-(6R)-7-[4-bromo-3-(trifluoromethyl)benzoyl]-6-methyl-3-oxo-N-[[2-(2-pyridyl)phenyl]methyl]-2-[4-[rac-(2S)-3,3,3-trifluoro-2-hydroxy-2-methyl-propoxy]phenyl]-6,8-dihydro-5H-imidazo[1,5-a]pyrazine-1-carboxamide], the EC50 was 50 to 500 nM.
